PubChem BioAssay AID2305 (GlaxoSmithKline (GSK), 2010)
“And” between values parts separate entries of the source, which are not always exact repeats. Equal values may be shown once.

These molecules were tested on P. falciparum 3D7 growth, pLDH absorbance (assay: blood-stage malaria parasite growth potency – strain 3D7, dose response (AID 2305)).

In order of falling IC50:
1. COc1ccccc1-c1ccc(C(=O)NCC2CCCN(Cc3cccc(C(F)(F)F)c3)C2)s1 (centres undefined)  1540 nM
2. CCn1c(-c2nonc2N)nc2c(Cl)ncc(O[C@H](CCN)c3ccccc3F)c21  1460 nM
3. Cc1c(C(=O)[C@@H]2C[C@H]2CN2CCC(N3CCCC3)CC2)sc2ccccc12  1400 nM
4. Oc1ccc(CCNc2nc(NCCCOc3cccc(CN4CCCCC4)c3Cl)nc(N3CCNCC3)n2)cc1  1370 nM
5. Cc1cc(N[C@@H](Cc2ccccc2)C(=O)NCc2cccs2)nc(NCCc2ccccn2)n1  1280 nM
6. N#Cc1ccc(CCNc2nccc(-c3cccc(CN4CCNCC4)c3)n2)cc1  1250 nM
7. Cc1cccc2[nH]c(-c3ccc(-c4cccc(CNCCN5CCNCC5)c4)cc3)nc12  1230 nM
8. C=CC[C@H](C[C@H](O)[C@H](Cc1ccccc1)NC(=O)c1ccc(-c2cccnn2)cc1)C(=O)NC1CCCCC1  1190 nM
9. COC(=O)c1ccc(CC(C)NCC(O)c2cccc(Oc3cccc(C(F)(F)F)c3)c2)cc1 (centres undefined)  1170 nM
10. CCOc1c(CNCCCNc2cc(=O)c3ccccc3[nH]2)cc(I)cc1OC  1170 nM
11. COc1ccc(CN2CCC(CNCCc3ccccc3Oc3ccccc3)CC2)cc1  1100 nM
12. CCCCN(Cc1cnccc1-c1ccc(Br)cc1)c1ccc(C(O)(C(F)(F)F)C(F)(F)F)cc1  1060 nM
13. CCC(COCc1ccc(Cl)cc1)N(C)CCN(C)C(CC)COCc1ccc(Cl)cc1 (centres undefined)  1060 nM
14. O=C(Nc1ccc(Cl)cn1)c1sc2ccccc2c1O  1040 nM
15. COc1ccc2[nH]c3ccccc3c(=O)c2c1  1000 nM
16. Clc1ccccc1OCc1ccccn1  990 nM
17. CC(C)C[C@H](NC(=O)c1cc(-c2ccc(F)cc2)no1)C(=O)O (tested in a mixture with another compound)  980 nM
18. CN1CCC(NCc2cccc(-c3cnc(NCc4ccccc4)nc3)c2)CC1  970 nM
19. O=C(NCCCCCN1CCC(c2c[nH]c3ccccc23)CC1)Nc1ccc(I)c(Cl)c1  970 nM
20. O=C(Nc1cccc(CN2CCCN(CC3CCCCC3)CC2)c1)c1ccc(Cl)c(Cl)c1  960 nM
21. COc1c(C(=O)NC2CCN(Cc3ccccc3)C2)cnc2ccccc12 (centres undefined)  960 nM
22. O=C(NCc1ccc(Cl)c(Cl)c1)[C@H]1CNCCN1C(=O)c1ccccc1  950 nM
23. O=C(Cc1ccsc1)NCC(c1ccccc1Cl)c1c[nH]c2ccccc12 (centres undefined)  950 nM
24. COc1cccc(CNC[C@@H](O)[C@H](Cc2ccccc2)NC(=O)c2cc(C(C)C)cc(N3CCCC3=O)c2)c1  950 nM
25. Cc1noc(C)c1-c1ccc2c(Nc3ccccc3C(C)(C)C)c(C(=O)NCc3cccc4ccccc34)cnc2c1  940 nM
26. COc1ccc(-n2ncc(C(=O)N3CCC4(C3)C(=O)N(c3ccccc3)c3ccccc34)c2C)cc1 (centres undefined)  930 nM
27. COc1ccc(CN(C)CCOc2ccc(NC(=O)c3cccc4c(=O)cc(-c5ccccc5)[nH]c34)cc2)cc1OC  920 nM
28. COc1ccc(Cn2c(Nc3cccc(C(F)(F)F)c3)nc3cc(C(=O)NCCN4CCCC4)cnc32)cc1Cl  920 nM
29. CC[C@H](C)CNC(=O)c1ccnc(-c2cccc(CN(C)C3CCN(C)CC3)c2)c1  900 nM
30. COc1cc(C=NNc2cc(C)nc3c(OC)cccc23)cc(OC)c1OC  890 nM
31. Cc1cc(C2CCN(CCCCNC(=O)c3ccc(-c4ccc(C(F)(F)F)cc4)cc3)CC2)c(C)cc1OCCO  880 nM
32. N=c1n(CCN2CCCCC2)c2ccccc2n1CC(=O)c1cccc([N+](=O)[O-])c1  880 nM
33. CCCCc1ccc(NC(=O)Nc2cccc(CCNCc3ccccc3)c2)cc1  880 nM
34. Oc1c(CN2CCC(Cc3ccccc3)CC2)cc(Cl)c2cccnc12  880 nM
35. CCC(CC)N1CCN(CC(=O)Nc2ccc([N+](=O)[O-])cc2C(=O)Nc2cccc(OC)c2)CC1  870 nM
36. COc1ccc(C(=O)CCC(=O)N(CCC2CCCN2C)Cc2ccc(-c3ccc(CNCCc4ccc(S(C)(=O)=O)cc4)cn3)cc2)cc1F (centres undefined)  870 nM
37. Cn1cnc(CCNC(=O)c2ccc(-c3ccc(-c4nc5ccc(F)cc5[nH]4)cc3)cc2)c1  870 nM
38. COc1ccc2nccc(N3CCC(NCCNCc4ccc5c(n4)NC(=O)CO5)C3)c2n1 (centres undefined)  860 nM
39. CCCOc1ccc(-c2nonc2NC(=O)c2ccccc2OC)cc1OCCC  860 nM
40. O=C(Nc1cccc(C(F)(F)F)c1)c1cccc(S(=O)(=O)NC2CCCN(CC3CCCCC3)C2)c1 (centres undefined)  860 nM
41. CCN(CCCN1CCCCC1)c1cc(C)nc(Nc2cc(C(F)(F)F)ccc2C)n1  860 nM
42. COc1ccc2c(c1)[nH]c1c(/C=C/c3ccc([N+](=O)[O-])cc3)nccc12  860 nM
43. Cc1ccc(Cn2nc(N3CCNCC3)ccc2=O)cc1NC(=O)Nc1ccc(-c2ccccc2)cc1  840 nM
44. Cc1cc(N[C@@H](Cc2ccccc2)C(=O)NC2CCCC2)nc(Nc2ccccc2)n1  830 nM
45. COc1ccc(CNC2Cc3ccccc3C2)cc1-c1ccc(S(=O)(=O)NCc2ccccc2)s1  830 nM
46. CN(C)Cc1ccc(-c2cc3c(Nc4ccc(OCc5cccc(F)c5)c(Cl)c4)ncnc3s2)[nH]1  820 nM
47. COc1cccc(C=CC(=O)N(CCN)Cc2ccccc2)c1  820 nM
48. CC(CN(C)C)C(=O)Nc1cccc(-c2ccc(-c3nc4ccc(F)cc4[nH]3)s2)c1 (centres undefined)  800 nM
49. Cc1csc2nc(-c3ccccn3)nc(Nc3ccncn3)c12  790 nM
50. O=C(/C=C/c1ccc(Cl)c(Cl)c1)NCC[C@@H]1C[C@H]1CCN1CCC(c2c[nH]c3ccccc23)CC1  790 nM
51. COc1ccc(-c2ccccc2OCCCNc2nc(NCCc3ccc(O)cc3)nc(N3CCNCC3)n2)cc1  790 nM
52. CCN(CC)CCN(Cc1ccc(-c2ccc(C(F)(F)F)cc2)cc1)C(=O)Cn1c(CCc2cccc(F)c2F)cc(=O)cc1-c1ccccc1  780 nM
53. NCc1ccc(-c2ccccc2CNC2CCN(Cc3ccccc3)CC2)cc1  770 nM
54. c1ccc(CN2CCCN(c3ccc4c(c3)CCN(Cc3ccc(-c5ncc[nH]5)cc3)CC4)CC2)cc1  760 nM
55. N#CCOc1c(C2CCN(CCCCNC(=O)c3ccc(-c4ccc(C(F)(F)F)cc4)cc3)CC2)ccc2c1CCCC2  760 nM
56. CN(C)Cc1cccc(-c2ccc(NC(=O)c3ccc4c(=O)n(C5CCCCC5)cnc4c3)cc2)c1  740 nM
57. CNCCNCc1cccc(-c2ccc(-c3nc4ccccc4[nH]3)cc2)c1  740 nM
58. O=C1Nc2cccc3c2C1(CCCCCN1CC=C(c2c[nH]c4ccccc24)CC1)CCC3 (centres undefined)  740 nM
59. Cc1cccc2[nH]c(-c3ccc(-c4ccc(CNCc5ccc(CN)cc5)cc4)cc3)nc12  720 nM
60. OC(CNCc1ccccc1Oc1ccccc1)c1cccc(C(F)(F)F)c1 (centres undefined)  710 nM
61. COc1ccc(Cl)cc1S(=O)(=O)Nc1cccc(CCN2CCC(N3CCCCC3)CC2)c1  700 nM
62. CC(=NO)C1=C(O)C(c2ccccc2)N(c2ccccc2)C1=O (centres undefined)  700 nM
63. O=C(NCCCN1CCN(c2cccc(Cl)c2)CC1)c1ccc(-c2nc3cc(Cl)c(Cl)cc3[nH]2)cc1  700 nM
64. CC(=O)N(Cc1cccc(-c2ccc(CNCCc3ccccc3)cc2)c1)C1CCN(Cc2ccccc2)CC1  690 nM
65. O=[N+]([O-])c1cccc(CNCC2CCN(Cc3ccc(O)cc3)CC2)c1  670 nM
66. COc1cc2nc(Nc3ccc4c(ccn4Cc4ccccc4)c3)nc(Nc3ccc4c(ccn4Cc4ccccc4)c3)c2cc1OC  650 nM
67. COc1ccc(CN2CCC(NCc3cccc(-n4ccnc4)c3)CC2)cc1  630 nM
68. CCOC(=O)NCC(=O)Nc1cccc(-c2cccc(-c3nc4ccc(C(F)(F)F)cc4[nH]3)c2)c1  630 nM
69. NC1CCN(Cc2cccc(-c3ccc(-c4nc5ccc(F)cc5[nH]4)cc3)c2)C1 (centres undefined)  600 nM
70. Cc1[nH]c(C)c(-c2ccc(OCc3ccc(F)cc3)cc2)c(=O)c1Cl  570 nM
71. COc1ccc(O)cc1/C=N/Nc1ccnc2cc(Cl)ccc12  540 nM
72. Cc1cccc2[nH]c(-c3cccc(-c4cccc(NC(=O)C(C)CN5CCN(C)CC5)c4)c3)nc12 (centres undefined)  540 nM
73. NS(=O)(=O)c1cncc(-c2ccc3nccc(-c4cn[nH]c4)c3n2)c1  530 nM
74. CCOc1ccc(-c2nc(NC(=O)CS(=O)(=O)c3ccccc3)sc2C)cc1  510 nM
75. COc1ccc(C(=O)Cn2nc(-c3ccc(Cl)cc3)ccc2=O)c(OC)c1  500 nM
76. O=C(NC1CC1)C1CCN(Cc2cc3ccccc3n2Cc2ccc(Cl)cc2)CC1  490 nM
77. Cc1ccc(C(=O)NC2CCN(CCNC(=O)Nc3cc(C)nc4ccccc34)CC2)cc1  490 nM
78. Cc1csc(NC2=NCCN2)n1  470 nM
79. CC(CN(C)C)Oc1ccc2[nH]c(-c3cccc(OCc4ccccc4)c3)nc2c1C#N (centres undefined)  410 nM
80. O=C(Nc1nccs1)c1cc(-c2cccnc2)nc2ccc(Br)cc12  400 nM
81. Cc1ccc(NC(=O)Cc2noc(CC3CCCN3C(=O)N[C@@H](C)c3ccccc3)n2)cc1 (some centres undefined)  370 nM
82. O=C(Nc1cccc(CN2CCN(C(=O)c3cccc(F)c3)CC2)c1)c1cccs1  370 nM
83. COc1ccc(-c2cccc(NC(=O)c3cccc(C#N)c3)c2)cc1CN(C)CCN(C)C  310 nM
84. NCCCNc1ccnc2cc(Cl)ccc12  300 nM
85. Cc1[nH]c(C)c(-c2ccc(Oc3ccc(Cl)c(Cl)c3)cc2)c(=O)c1Br  300 nM
86. CC(=O)Oc1c(C(=O)C2CCC(C(C)(C)C)CC2)c(OC(C)=O)c2ccccc2c1OC(C)=O (centres undefined)  270 nM
87. CC1CCCCN1CCCNc1ncc2c(-c3ccc(NC(=O)Nc4cc(C(F)(F)F)ccc4F)c(F)c3)nn(C)c2n1 (centres undefined)  260 nM
88. Cc1nc2ccc(-c3nc4ccc(N)cc4[nH]3)cc2[nH]1  230 nM
89. O=C1C2=C(Nc3ccccc3SC2c2cccs2)c2ccccc21 (centres undefined)  230 nM
90. CCCCCCCCn1c2c(c(=N)c3c1CCC3)CCC2  220 nM
91. O=C(O)c1ccc2nc(-c3ccccn3)c(-c3ccccn3)nc2c1  220 nM
92. Cc1cccc(OC2CCN(c3ncc(C(=O)NCCCN4CCCC4=O)cc3Cl)CC2)c1  180 nM
93. CC(C)N(Cc1cnc2nc(N)nc(N)c2n1)c1ccc(Cl)c(Cl)c1  160 nM
94. Cc1ccccc1C1CCN(C2CCC(NC(=O)c3cc(-c4ccc(Cl)cc4)cs3)CC2)CC1 (centres undefined)  160 nM
95. CCN(CC)CCNC(=O)c1ccc(Nc2ncc([N+](=O)[O-])c(Nc3ccccc3OC)n2)cc1  140 nM
96. CCc1cn2c3c(cc(C(=O)N[C@@H](Cc4cc(F)cc(F)c4)[C@H](O)CNC4CC4)cc13)N(C)S(=O)(=O)CC2  120 nM
97. O=C(Nc1ccc(-c2ccc(-c3nc4ccccc4[nH]3)cc2)cc1)Nc1ccc(Cl)c(Cl)c1  100 nM
98. CN(C)Cc1cc(Nc2ccnc3cc(Cl)ccc23)ccc1O  10 nM

`COc1cccc(/C=C/C(=O)NC2CCC(CN3CCC(c4c[nH]c5ccccc45)CC3)CC2)c1` (centres undefined) was tested, and the IC50 was 830 nM and 770 nM.
